biological target: human PD-L1 / Human PD-1 (Homo sapiens (Human), UniProt Q9NZQ7); assay: Enzyme-Linked Immunosorbent Assay (ELISA), PD-1/PD-L1 binding; conditions: plates coated with human PD-L1; biotinylated human PD-1; absorbance at 450 nm
Experimental: 96 Well plates were coated with 1 μg/mL of human PD-L1 (obtained from R&D) in PBS overnight at 4° C. The wells were then blocked with 2% BSA in PBS (W/V) with 0.05% TWEEN-20 for 1 hour at 37° C. The plates were washed 3 times with PBS/0.05% TWEEN-20 and the compounds were serial diluted (1:5) in dilution medium and added to the ELISA plates. Human PD-1 and biotin 0.3 μg/mL (ACRO Biosystems) were added and incubated for 1 hour at 37° C. then washed 3 times with PBS/0.05% TWEEN-20. A second block was performed with 2% BSA in PBS (W/V)/0.05% TWEEN-20 for 10 min at 37° C. and the plates were washed 3 times with PBS/0.05% TWEEN-20. Streptavidin-HRP was added for 1 hour at 37° C. then the plates were washed 3 times with PBS/0.05% TWEEN-20. TMB substrate was added and reacted for 20 min at 37° C. A stop solution (2 N aqueous H2SO4) was added. The absorbance was read at 450 nm using a micro-plate spectrophotometer. The results are shown in Table 1: IC50 values are provided as follows: from 100 up to 10,000 nM (+); less than 100 nM (++).

Sequence of human PD-L1 / Human PD-1 (Q9NZQ7 19-239): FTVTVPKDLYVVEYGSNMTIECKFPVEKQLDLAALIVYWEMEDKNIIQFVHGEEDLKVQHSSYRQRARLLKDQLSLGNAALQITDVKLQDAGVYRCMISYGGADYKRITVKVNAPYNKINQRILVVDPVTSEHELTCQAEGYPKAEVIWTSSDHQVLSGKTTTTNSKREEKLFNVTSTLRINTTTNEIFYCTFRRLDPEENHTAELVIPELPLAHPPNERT

| SMILES | IC50 |
| --- | --- |
| CCOc1cc(O[C@H]2CCc3c(-c4cccc(COc5cc(COC)c(CN6CCC(OC(=O)[C@@H](N)C(C)C)CC6)cc5Cl)c4C)cccc32)c(Cl)cc1CN1CCC(OC(=O)[C@@H](N)C(C)C)CC1 [Compound 1.001] | 100 to 10000 nM |
| CCOc1cc(O[C@H]2CCc3c(-c4cccc5c4CC[C@@H]5Oc4cc(OCc5cc(C#N)cc(C#N)c5)c(CN[C@@](C)(CO)C(=O)O)cc4Cl)cccc32)c(Cl)cc1CN[C@@](C)(CO)C(=O)O [Compound 1.026] | < 100 nM |
| CCOc1cc(O[C@H]2CCc3c(-c4cccc5c4CC[C@@H]5Oc4cc(OCc5cncc(C#N)c5)c(CN[C@@](C)(CO)C(=O)O)cc4Cl)cccc32)c(Cl)cc1CN[C@@](C)(CO)C(=O)O [Compound 1.040] | < 100 nM |
| Cc1c(COc2ccc(CN[C@@](C)(CO)C(=O)O)cc2F)cccc1-c1cccc2c1CCC2Oc1ccc(CN[C@@](C)(CO)C(=O)O)cc1F (stereo partly drawn) [Compound 1.010] | 100 to 10000 nM |
| CCOc1cc(O[C@H]2CCc3c(-c4cccc5c4CC[C@@H]5Oc4cc(OCC)c(CN[C@H]5CCC(=O)NC5)cc4Cl)cccc32)c(Cl)cc1CN[C@H]1CCC(=O)NC1 [Compound 1.009] | < 100 nM |
| CCOc1cc(O[C@H]2CCc3c(-c4cccc(COc5cc(COC)c(CN6CCC(OC(=O)C(C)C)CC6)cc5Cl)c4C)cccc32)c(Cl)cc1CN1CCC(OC(=O)C(C)C)CC1 [Compound 1.005] | 100 to 10000 nM |
| Cc1c(COc2ccc(CN[C@@](C)(CO)C(=O)O)cc2Cl)cccc1-c1cccc2c1CCC2Oc1ccc(CN[C@@](C)(CO)C(=O)O)cc1Cl (stereo partly drawn) [Compound 1.024] | < 100 nM |
| CCOc1cc(O[C@H]2CCc3c(-c4cccc5c4CC[C@@H]5Oc4cc(OCC)c(CN[C@@](C)(CO)C(=O)OC)cc4Cl)cccc32)c(Cl)cc1CN[C@@](C)(CO)C(=O)OC [Compound 1.022] | 100 to 10000 nM |
| CCOc1cc(O[C@H]2CCc3c(-c4cccc5c4CC[C@@H]5Oc4cc(OCC)c(CN5CC6(CC(O)C6)C5)cc4Cl)cccc32)c(Cl)cc1CN1CC2(CC(O)C2)C1 [Compound 1.050] | < 100 nM |
| CCOc1cc(O[C@H]2CCc3c(-c4cccc5c4CC[C@@H]5Oc4cc(OCC)c(CN)cc4Cl)cccc32)c(Cl)cc1CN [Compound 1.003] | 100 to 10000 nM |
| N#Cc1cncc(COc2cc(O[C@H]3CCc4c(-c5cccc6c5CC[C@@H]6Oc5cc(OCc6cncc(C#N)c6)c(CNCC(=O)O)cc5Cl)cccc43)c(Cl)cc2CNCC(=O)O)c1 [Compound 1.017] | < 100 nM |
| CCOc1cc(O[C@H]2CCc3c(-c4cccc5c4CC[C@@H]5Oc4cc(OCC)c(CN[C@@](C)(CO)C(=O)O)cc4Cl)cccc32)c(Cl)cc1CNC[C@@H]1CCC(=O)N1 [Compound 1.032] | < 100 nM |
| CN(Cc1cc(Cl)c(O[C@H]2CCc3c(-c4cccc5c4CC[C@@H]5Oc4cc(OCc5cncc(C#N)c5)c(CN(C)[C@@](C)(CO)C(=O)O)cc4Cl)cccc32)cc1OCc1cncc(C#N)c1)[C@@](C)(CO)C(=O)O [Compound 1.033] | < 100 nM |
| N#Cc1cncc(COc2cc(O[C@H]3CCc4c(-c5cccc6c5CC[C@@H]6Oc5cc(OCc6cncc(C#N)c6)c(CN[C@@H](CO)C(=O)O)cc5Cl)cccc43)c(Cl)cc2CN[C@@H](CO)C(=O)O)c1 [Compound 1.038] | < 100 nM |
| C[C@@H](O)[C@H](NCc1cc(Cl)c(O[C@H]2CCc3c(-c4cccc5c4CC[C@@H]5Oc4cc(OCc5cncc(C#N)c5)c(CN[C@H](C(=O)O)[C@@H](C)O)cc4Cl)cccc32)cc1OCc1cncc(C#N)c1)C(=O)O [Compound 1.039] | < 100 nM |
| CCOc1cc(O[C@H]2CCc3c(-c4cccc5c4CC[C@@H]5Oc4cc(OCC)c(CN[C@H](C(=O)NS(C)(=O)=O)[C@@H](C)O)cc4Cl)cccc32)c(Cl)cc1CN[C@H](C(=O)NS(C)(=O)=O)[C@@H](C)O [Compound 1.030] | < 100 nM |
| COc1cc(CN[C@@](C)(CO)C(=O)O)ccc1OCc1cccc(-c2cccc3c2CCC3Oc2ccc(CN[C@@](C)(CO)C(=O)O)cc2OC)c1C (stereo partly drawn) [Compound 1.011] | 100 to 10000 nM |
| CCOc1cc(O[C@H]2CCc3c(-c4cccc5c4CC[C@@H]5Oc4cc(OCC)c(CN5CCC5(C)C)cc4Cl)cccc32)c(Cl)cc1CN1CCC1(C)C [Compound 1.048] | < 100 nM |
| CCOc1cc(O[C@H]2CCc3c(-c4cccc5c4CC[C@@H]5Oc4cc(OCC)c(CN[C@H](C(=O)OC)[C@@H](C)O)cc4Cl)cccc32)c(Cl)cc1CN[C@H](C(=O)OC)[C@@H](C)O [Compound 1.034] | 100 to 10000 nM |
| CCOc1cc(OCc2cccc(-c3cccc4c3CCC4Oc3ccc(CN[C@@](C)(CO)C(=O)O)c(OCC)c3)c2C)ccc1CN[C@@](C)(CO)C(=O)O (stereo partly drawn) [Compound 1.023] | 100 to 10000 nM |

Now from value to compound:

| IC50 | SMILES |
| --- | --- |
| < 100 nM | CCOc1cc(OCc2cccc(-c3cccc4c3CC[C@@H]4Oc3cc(OCC)c(CNCCS(=O)(=O)O)cc3Cl)c2C)c(Cl)cc1CNCCS(=O)(=O)O [Compound 1.004] |
| < 100 nM | CCOc1cc(NC2CCc3c(-c4cccc(COc5cc(OCC)c(CN(C)CCCC(=O)O)cc5Cl)c4C)cccc32)c(Cl)cc1CN(C)CCCC(=O)O (stereo not drawn) [Compound 1.015] |
| < 100 nM | CCOc1cc(O[C@H]2CCc3c(-c4cccc5c4CC[C@@H]5Oc4cc(OCC)c(CN(C)[C@@H](CO)C(=O)O)cc4Cl)cccc32)c(Cl)cc1CN(C)[C@@H](CO)C(=O)O [Compound 1.002] |
| < 100 nM | CCOc1cc(O[C@H]2CCc3c(-c4cccc5c4CC[C@@H]5Oc4cc(OCC)c(CN(C)CCC(=O)O)cc4Cl)cccc32)c(Cl)cc1CN(C)CCC(=O)O [Compound 1.049] |
| < 100 nM | CCOc1cc(O[C@H]2CCc3c(-c4cccc5c4CC[C@@H]5Oc4cc(OCC)c(CN[C@H](CO)C(=O)O)cc4Cl)cccc32)c(Cl)cc1CN[C@H](CO)C(=O)O [Compound 1.018] |
| < 100 nM | CCOc1cc(O[C@H]2CCc3c(-c4cccc5c4CC[C@@H]5Oc4cc(OCC)c(CN[C@@H](CO)C(N)=O)cc4Cl)cccc32)c(Cl)cc1CN[C@@H](CO)C(N)=O [Compound 1.014] |
| < 100 nM | CCOc1cc(O[C@H]2CCc3c(-c4cccc5c4CC[C@@H]5Oc4cc(OCC)c(CN[C@@H](CO)C(=O)O)cc4Cl)cccc32)c(Cl)cc1CN[C@@H](CO)C(=O)O [Compound 1.045] |
| < 100 nM | CN(CCCC(=O)O)Cc1cc(Cl)c(O[C@H]2CCc3c(-c4cccc5c4CC[C@@H]5Oc4cc(OCc5cncc(C#N)c5)c(CN(C)CCCC(=O)O)cc4Cl)cccc32)cc1OCc1cncc(C#N)c1 [Compound 1.035] |
| < 100 nM | CCOc1cc(O[C@H]2CCc3c(-c4cccc5c4CC[C@@H]5Oc4cc(OCC)c(CN[C@@](C)(CO)C(=O)O)cc4Cl)cccc32)c(Cl)cc1CN[C@@](C)(CO)C(=O)O [Compound 1.044] |
| < 100 nM | CCOc1cc(O[C@H]2CCc3c(-c4cccc5c4CC[C@@H]5Oc4cc(OCC)c(CN(C)CCCC(=O)O)cc4Cl)cccc32)c(Cl)cc1CN(C)CCCC(=O)O [Compound 1.025] |
| < 100 nM | CCOc1cc(O[C@H]2CCc3c(-c4cccc(COc5cc(COC)c(CN[C@@](C)(CO)C(=O)O)cc5Cl)c4C)cccc32)c(Cl)cc1CN[C@@](C)(CO)C(=O)O [Compound 1.036] |
| < 100 nM | CCOc1cc(O[C@H]2CCc3c(-c4cccc5c4CC[C@H]5Oc4cc(OCC)c(CN[C@@](C)(CO)C(=O)O)cc4Cl)cccc32)c(Cl)cc1CN[C@@](C)(CO)C(=O)O [Compound 1.031] |
| < 100 nM | CCOc1cc(O[C@H]2CCc3c(-c4cccc5c4CC[C@@H]5Oc4cc(OCC)c(CN[C@H](C(=O)O)[C@@H](C)O)cc4Cl)cccc32)c(Cl)cc1CN[C@H](C(=O)O)[C@@H](C)O [Compound 1.042] |
| 100 to 10000 nM | CCOc1cc(O[C@H]2CCc3c(-c4cccc5c4CC[C@@H]5Oc4cc(OCC)c(CN(C)CCCC(=O)OC)cc4Cl)cccc32)c(Cl)cc1CN(C)CCCC(=O)OC [Compound 1.021] |
| < 100 nM | COC(=O)CCCN(C)Cc1cc(Cl)c(O[C@H]2CCc3c(-c4cccc5c4CC[C@@H]5Oc4cc(OCc5cncc(C#N)c5)c(CN(C)CCCC(=O)OC)cc4Cl)cccc32)cc1OCc1cncc(C#N)c1 [Compound 1.027] |
| < 100 nM | CCOc1cc(O[C@H]2CCc3c(-c4cccc(COc5cc(COC)c(CN(C)CCCC(=O)O)cc5Cl)c4C)cccc32)c(Cl)cc1CN(C)CCCC(=O)O [Compound 1.012] |
| < 100 nM | CCOc1cc(O[C@H]2CCc3c(-c4cccc(COc5ccc(CN(C)C)cc5)c4C)cccc32)c(Cl)cc1CN[C@@](C)(CO)C(=O)O [Compound 1.037] |
| 100 to 10000 nM | CCOc1cc(O[C@H]2CCc3c(-c4cccc5c4CC[C@@H]5Oc4cc(OCC)c(CN(C)CCC(=O)OC)cc4Cl)cccc32)c(Cl)cc1CN(C)CCC(=O)OC [Compound 1.043] |
| < 100 nM | CCOc1cc(O[C@H]2CCc3c(-c4cccc5c4CC[C@@H]5Oc4cc(OCC)c(CN[C@@H](CCO)C(=O)O)cc4Cl)cccc32)c(Cl)cc1CN[C@@H](CCO)C(=O)O [Compound 1.047] |
| < 100 nM | CCOc1cc(O[C@@H]2c3cccc(-c4cccc(COc5cc(COC)c(CN[C@@](C)(CO)C(=O)O)cc5Cl)c4C)c3C[C@@H]2F)c(Cl)cc1CN[C@@](C)(CO)C(=O)O (mixture of isomers) [Compound 1.020] |
| < 100 nM | CCOc1cc(O[C@H]2CCc3c(-c4cccc5c4CC[C@@H]5Oc4cc(OCC)c(CN(C)[C@@](C)(CO)C(=O)O)cc4Cl)cccc32)c(Cl)cc1CN(C)C[C@@H]1CCC(=O)N1 [Compound 1.006] |
| < 100 nM | CCOc1cc(O[C@H]2CCc3c(-c4cccc5c4CC[C@@H]5Oc4cc(OCC)c(CN(C)[C@@](C)(CO)C(=O)O)cc4Cl)cccc32)c(Cl)cc1CN(C)[C@@](C)(CO)C(=O)O [Compound 1.019] |

From patent US11872217B2, “Indanes as PD-L1 inhibitors” (CHEMOCENTRYX, INC., priority 2019, dated 2024)
